One assay concerns HIV-1 5′-LTR (Nuc-1). Description: FAIRE assay in J-Lat 11.1. Particulars: overnight compound treatment. The assay is classed as cell-based. As for the experimental part:
24. Activation markers, apoptosis and viability of primary CD4+ T cells: Activation markers, namely CD25 and CD69 were analyzed as described previously^55. Briefly, CD4+ T cells were treated with DMSO, compound, or PMA/Ionomycin for 24 and 72 hours. Cells were collected, washed with PBS and stained for 30 min at 4° C. with α-CD25-APC (17-0259-42, eBioscience) and α-CD69-FITC (11-0699-42, eBioscience). Following two washes with PBS, cells were fixed with 1% HCHO at 4° C. and analyzed by flow cytometry with Becton Dickinson Fortessa instrument. To determine percent of apoptotic cells after treatment cells were stimulated for 24 and 72 hours and stained with anti-AnnexinV-PE (BD Biosciences, cat. 556454) in the presence of 2.5 mM CaCl2 for 20 min at 4° C. Cells were analyzed by Becton Dickinson Fortessa flow cytometer. Data represents the average of six experiments performed on cells from different healthy donors. Viability of ex-vivo infected primary CD4+ cells was determined by flow cytometry on the basis of forward versus side scatter analysis. 25. FAIRE: FAIRE experiment was performed as described, with minor modifications^55. Eighteen hours prior to analysis, J-Lat 11.1 cells were treated with BAFi's where indicated. Cells were fixed for 10 min by adding formaldehyde to a final concentration of 1% at room temperature. Twenty million cells were used per FAIRE experiment. […]

Assay [1] deals with Bmi1-luciferase reporter cell line. Description: Bmi1-luciferase reporter assay (screen for inhibitors of BAF-mediated transcriptional repression). The assay is classed as cell-based, mouse. Particulars: grading in words. As for the experimental part: Low passage mESCs from 129 mice (20 million, p10) were electroporated with 40 μg of a linearized construct consisting of 2 kb homology upstream of the Bmi1 locus, firefly luciferase at exon 1 of Bmi1 followed by loxP neo and a 6 kb 3′ homology arm with thymidine kinase outside the homology arms. The cells were plated on 10 gelatin treated plates (60 mm) of irradiated neo resistant MEFs and selected with G418 and ganciclovir for 5 days. 384 colonies were selected, trypsinized and replated in gelatin treated 24-well plates for expansion. The cells were split and DNA was isolated for digestions with EcoRI or BamHI. We confirmed the successful homologous recombination in 7 out 384 colonies using Southern blot analysis at both the 5′ (EcoRI) and 3′ (BamHI) end (see Table S2 of Marian et al., “Small Molecule Targeting of Specific BAF (mSWI/SNF) Complexes for HIV Latency Reversal,” Cell Chem. Biol. (Dec. 20, 2018) 25: 1443-1445). We deleted the neomycin cassette using transfected Cre recombinase and confirmed the excision at all clones using a second round of Southern blot analysis at the 3′ end (BamHI).
3. Compound Treatment: 10,000 cells in 30 μL ESC media were plated in white 384 well CellBind plates. The cells were cultured in a 37° C., 5% CO2 incubator for 24 h and 100 nL/well of 0.75 mM of positive control (Pubchem SID: 85814977) or 100 nL/well of 3.75 mM compound library (primary screen) was added via pin transfer into plates. There was no effect on assay readout at DMSO concentrations up to 0.5%. The cells were cultured in a 37° C., 5% CO2 incubator for 24 h for luciferase reporter assay and 18 h for qRT-PCR assay. 4. Luciferase assay: (PubChem AID 602393 primary, PubChem AID 651717 confirmatory.) The assay plates were removed from the incubator and equilibrates for 10 minutes to room temperature. Promega SteadyGlo® solution (10 μL/well) was added to each well of the assay plates. The assay plates were mixed at 1000 rpm for 15 seconds and then incubated for 10 minutes at room temperature. The luciferase levels were read on a Perkin Elmer Envision in Ultra Sensitive Luminescence mode. Signals remained stable up to 2 hours. 5. EqRT-PCR secondary screen (PubChem AID 743180, 743177, 743176) The qRTPCR screen was performed as published^54. In brief, 5,000 ES cells were plated on gelatin-coated 384-well tissue culture plates and cultured in a 37C, 5% CO2 incubator. 24 h later, hit compounds in 100 nL DMSO were treated at eight different doses. 18 h after compound treatment cells were washed two times with 100 μL PBS and all excess PBS was removed by centrifuging the plates upside down at 1000 rpm. The Ambion® Cells-to-Ct kit was used to generate cDNA. In brief, the cells were lysed in the plate in 10 μL lysis buffer containing DNase for 10 minutes and quenched with 1 μL lysis stop buffer. The lysate (2 μL) was added to 5 μL RT reaction buffer (2×), 2.5 μL nuclease-free water and 0.5 μL Reverse transcriptase (20×) and incubated at 37° C. for 60 minutes and 95° C. for 1 minute to generate 10 μL of cDNA. cDNA (1 μL) was used in each 5 μL qPCR reaction with Roche master mix and TaqMan probes (Applied Biosystems) for Bmi1-FAM (Mm00776122_gH), Ring1a-FAM (Mm01278940_m1/4331182), or Fgf4-FAM (Mm00438916_g1/4351372) alongside actin-VIC (4352341E) for a loading control. The qPCR was run accordingly: 95° C. for 10 minutes Then 55 cycles of: 95° C. for 10 seconds followed by 60° C. for 30 seconds. The fold increase in transcription was calculated using the ΔΔCT method^84. 6. Viability Assays (PubChem AID: 743188, 743189, 743190, 1053139, 1053140, 1053141)
(In a reporter assay the amount or activity of a reporter protein is the signal.)

Turning to `CO[C@H]1CN(C)C(=O)c2cc(NC(=O)OC(C)C)ccc2OC[C@H](C)N(Cc2ccc(-c3ccccn3)cc2)C[C@@H]1C` [BRD-K80443127], the “chromatin accessibility at the Nuc-1 position of the 5′ LTR” value with HIV-1 5′-LTR (Nuc-1) is reported as “increased chromatin accessibility”. For the same molecule, the “activity in the Bmi1 luciferase reporter assays” value in assay [1] is given as “high activity”.

(Values after US11980613B2, “Methods for reversing HIV latency using BAF complex modulating compounds” (priority 2018, dated 2024).)
